Patent US20250171404A1, “PCNA INHIBITORS AND USES THEREOF” (CITY OF HOPE, priority 2022, published 2025)

Experiments:
γH2A.X = γH2A.X Western blot (DNA damage marker); assay type: cell-based, human
7SM0032 = test: Cell cycle analysis (PI, flow cytometry), nonmalignant cells; assay type: cell-based, human; settings: 500 nM; nonmalignant 7SM0032 cells
Experimental: FIGS. 3A-3D. Therapeutic properties of AOH1996. FIG. 3A: Normal cells (7SM0032) or cancer cells (SH-SY5Y and SK-N-BE(2)c) cells were fixed, stained with PI, and analyzed by flow cytometry following treatment with 500 nM AOH1996 for the indicated time. FIG. 3B: SK-N-DZ neuroblastoma cells and nonmalignant 7SM0032 stem cells were incubated with 500 nM AOH1996 for 24 h. Then, after being fixed on slides, cell apoptosis were analyzed by a TUNEL assay. Left: TMR fluorophore attached to the free ends of DNA indicates cells undergoing apoptosis. DAPI stained nuclei also shown. Right: Average abundance ±S.D. of apoptotic 7SM0032 (black histogram) and SK-N-DZ (grey histogram) cells relative to the total number of cells are shown in 5 randomly selected fields. FIG. 3C: Human SK-N-DZ neuroblastoma cells were treated with or without the indicated concentrations of cisplatin in the absence or presence of 500 nM of AOH1996 for 18 hours. […] The relative number of colonies determined in triplicates for each treatment condition were averaged and graphed ±SDs (*, P<0.01). […] Cell growth was measured as the percentage of cell confluence by imaging every 6 h for a total of 48 h.
Cell Cycle Analysis. […] PI fluorescence intensity of the cells was measured by flow cytometry and the data was analyzed using the FlowJo program.

H82 xenograft tumors = test: Xenograft tumor model, small-cell lung cancer; assay type: in vivo, mice; settings: 40 mg/kg twice daily, oral, vs vehicle
Experimental: (§1) FIGS. 4A-4H. Pharmacokinetics and anti-tumor growth activity of AOH1996 in vivo. FIG. 4A: After oral administration, the plasma concentrations of AOH1996 from three male and three female ES1^e/SCID mice at the indicated time points were averaged and graphed ±S.D. The inset contains PK parameters determined by a standard noncompartmental method. FIG. 4B: A similar PK study of AOH1996 was performed in dogs. FIGS. 4C-4E: Mice bearing the xenograft tumors of neuroblastoma (FIG. 4C: SK-N-BE(2)c), breast cancer (FIG. 4D: MDA-MB-468), and small-cell lung cancer (FIG. 4E: H82) were given vehicle only (black) or 40 mg/kg of AOH1996 (grey) twice daily immediately after the first measurement. Tumor sizes were measured by a dial caliper each week. Tumor volumes (0.4×L×W^2) were averaged and graphed ±S.E. (*, P<0.01). FIG. 4F: Animal body weight was monitored throughout the studies as an indicator of toxicity. […] FIG. 4G: The levels of phosphor-Chk1 (pChk1) and γH2A.X in SK-N-BE(2)c derived tumor samples were analyzed by IHC. […] The p values determined by the Log-rank (Mantel-Cox) test between combination treatment and each of the control groups are p=0.0003 (Combination vs. NoRx), p=0.005 (Combination vs. AOH1996 alone), and p=0.024 (Combination vs. CPT-11 alone).
(§2) In vivo tumor model. […] Tumor size and animal weight were measured weekly. […]

[1] = tested on: SK-N-AS derived xenograft tumors; test: Survival of mice bearing xenograft tumors, AOH1996 with CPT-11; assay type: in vivo, ES1^e/SCID mice; settings: AOH1996 80 mg/kg oral 8 d; CPT-11 15 mg/kg i.p. 3 d; vs untreated
Experimental: as §1, with “alone). […]” for “alone).”
as §2

Structure (SMILES): COc1cccc(Oc2ccccc2NC(=O)CNC(=O)c2cccc3ccccc23)c1 [AOH1996, N-(2-((2-(3-methoxyphenoxy)phenyl)amino)-2-oxoethyl)-1-naphthamide]
- γH2A.X levels, cancer vs non-malignant cells (γH2A.X; 500 nM, SK-N-BE(2)c): caused accumulation of DNA damages as measured by γH2A.X levels in the SK-N-BE(2)c cancer cells, but not in non-malignant cells
- γH2A.X levels, wildtype RPB1 vs Y418A mutant cells (γH2A.X; SK-N-AS, overnight): caused substantially more DNA damages as measured by γH2A.X levels in cells containing wildtype RPB1 allele than in cells homozygous of the Y418A mutant allele
- change in cell-cycle profile (7SM0032): does not significantly change the cell-cycle profiles
- tumor burden (H82 xenograft tumors): significantly reduced tumor burden
- increase of median survival [1]: ~11.5%
